# System: patients with chronic constipation
# Assay: Clinical trial, secondary efficacy RESP12: increase of 1 or more CSBM/week over baseline after 12 weeks of treatment, by subgroup and genotype
# Type: in vivo, human
# Conditions: for Odds Ratio: 6-mg bid vs placebo; for % Responders T6 / Odds Ratio (T6 v P) / % Responders: 6-mg bid
# Method: Introduction. A clinical trial was performed to evaluate the efficacy of tegaserod (Zelmac®/Zelnorm™) at 6 mg bid (12 mg/day) or 2 mg bid (4 mg/day) vs. placebo by measuring the number of complete spontaneous bowel movements (CSBM) during the first 4 weeks of treatment. Secondary objectives included evaluating the number of CSBM during the entire 12-week treatment period, bowel habits, laxative use, and safety and tolerability issues. The clinical trial design consisted of a 2-week baseline period without medication, a 12-week, randomized, double-blind, placebo-controlled treatment period, and a 4-week withdrawal period without study medication. As part of the clinical trial, DNA was collected from patients at screening for pharmacogenetic analysis to evaluate genetic polymorphisms relating to drug targets and disease aetiology.
# Clinical assessments. […] The primary efficacy endpoint evaluated was the increase of 1 or more CSBM/week over baseline after 4 weeks of treatment. A secondary endpoint evaluated in this genotyping study was RESP12, the increase of 1 of more CSBM/week over baseline after 12 weeks of treatment. Patients were classified as responders if they met these criteria and had completed at least 7 days of treatment. Additional secondary efficacy assessments were evaluated based on the weekly diary assessments, such as bothersome constipation, bothersome abdominal pain, and satisfaction with bowel habits at the end of the 12-week treatment period (using the baseline value as a co-variant for analysis).
# Statistical analysis. Statistical analysis was performed using SAS version 8.2 (The SAS Institute, Cary, N.C., USA). Analysis methods included Fisher's Exact tests, analysis of Covariance (ANCOVA), logistic regression, and Mantel-Haenzel tests to determine odds ratios and 95% confidence intervals, with significance established at p<0.05. Calculation of linkage disequilibrium was performed using the GOLD (graphical overview of linkage disequilibrium) method described by Abecasis & Cookson, Bioinformatics 16: 182-3 (2000).
# Secondary efficacy endpoint: response after 12 weeks of treatment. The same comparison as above was performed using the secondary efficacy endpoint of a mean increase of 1 or more CSBM/week over baseline after 12 weeks of treatment. The results for the 12 individual “high responder” SNPs are presented in TABLE 9 and the results using the comparison of individuals with or without at least one of the twelve SNPs is presented in TABLE 10.
# [1] = All Caucasians (ITT, >=7 days), Age <65, M + F
# [2] = All Caucasians (ITT, >=7 days), Age >=65, M + F
# [3] = All Caucasians (ITT, >=7 days), Age All, Female
# [4] = All Caucasians (ITT, >=7 days), Age All, M + F
# [5] = All Caucasians (ITT, >=7 days), Age All, Male
# [6] = All genotyped (ITT, >=7 days), Age <65, M + F
# [7] = All genotyped (ITT, >=7 days), Age >=65, M + F
# [8] = All genotyped (ITT, >=7 days), Age All, Female
# [9] = All genotyped (ITT, >=7 days), Age All, M + F
# [10] = All genotyped (ITT, >=7 days), Age All, Male
# [11] = All patients (ITT, >=7 days), Age <65, M + F
# [12] = All patients (ITT, >=7 days), Age >=65, M + F
# [13] = All patients (ITT, >=7 days), Age All, Female
# [14] = All patients (ITT, >=7 days), Age All, M + F
# [15] = All patients (ITT, >=7 days), Age All, Male
# [16] = Caucasians genotyped (ITT, >=7 days), Age <65, M + F
# [17] = Caucasians genotyped (ITT, >=7 days), Age >=65, M + F
# [18] = Caucasians genotyped (ITT, >=7 days), Age All, Female
# [19] = Caucasians genotyped (ITT, >=7 days), Age All, M + F
# [20] = Caucasians genotyped (ITT, >=7 days), Age All, Male
# [21] = Female (All ages), 0-12 of the 12 SNPs
# [22] = Female (All ages), 0 of the 12 SNPs
# [23] = Female (All ages), 1-12 of the 12 SNPs
smiles,measurement,setting,value
"[H]/N=C(/NCCCCC)N/N=C/c1c[nH]c2ccc(OC)cc12 [tegaserod, Tegaserod]",Odds Ratio,[1],2.8
same,Odds Ratio,[2],1.4
same,Odds Ratio,[3],2.5
same,Odds Ratio,[4],2.5
same,Odds Ratio,[5],2.5
same,Odds Ratio,[6],2.6
same,Odds Ratio,[7],2.6
same,Odds Ratio,[8],2.5
same,Odds Ratio,[9],2.6
same,Odds Ratio,[10],2.9
same,Odds Ratio,[11],2.3
same,Odds Ratio,[12],1.6
same,Odds Ratio,[13],2.2
same,Odds Ratio,[14],2.3
same,Odds Ratio,[15],2.6
same,Odds Ratio,[16],3.0
same,Odds Ratio,[17],2.3
same,Odds Ratio,[18],2.8
same,Odds Ratio,[19],2.8
same,Odds Ratio,[20],3.0
same,% Responders T6,0 of 14 SNPs,39%
same,Odds Ratio (T6 v P),0 of 14 SNPs,1.2
same,% Responders T6,>=1 of 14 SNPs,54%
same,Odds Ratio (T6 v P),>=1 of 14 SNPs,4.4
same,% Responders T6,AQP3 (1838) genotype CC,47%
same,Odds Ratio (T6 v P),AQP3 (1838) genotype CC,2.7
same,% Responders T6,AQP3 (1838) genotype CG,49%
same,Odds Ratio (T6 v P),AQP3 (1838) genotype CG,2.5
same,% Responders T6,AQP3 (1838) genotype GG,64%
same,Odds Ratio (T6 v P),AQP3 (1838) genotype GG,8.1
same,% Responders,[1],48%
same,% Responders,[2],38%
same,% Responders,[3],47%
same,% Responders,[4],47%
same,% Responders,[5],45%
same,% Responders,[6],47%
same,% Responders,[7],56%
same,% Responders,[8],47%
same,% Responders,[9],47%
same,% Responders,[10],52%
same,% Responders,[11],46%
same,% Responders,[12],40%
same,% Responders,[13],46%
same,% Responders,[14],46%
same,% Responders,[15],43%
same,% Responders,[16],49%
same,% Responders,[17],53%
same,% Responders,[18],48%
same,% Responders,[19],49%
same,% Responders,[20],57%
same,% Responders T6,[21],48%
same,Odds Ratio (T6 v P),[21],2.8
same,% Responders T6,[22],36%
same,Odds Ratio (T6 v P),[22],1.4
same,% Responders T6,[23],61%
same,Odds Ratio (T6 v P),[23],5.5
same,% Responders T6,HTR3B (3755) genotype AA,49%
same,Odds Ratio (T6 v P),HTR3B (3755) genotype AA,3.0
same,% Responders T6,HTR3B (3755) genotype AC,47%
same,Odds Ratio (T6 v P),HTR3B (3755) genotype AC,2.3
same,% Responders T6,HTR3B (3755) genotype CC,67%
same,Odds Ratio (T6 v P),HTR3B (3755) genotype CC,5.1
same,% Responders T6,HTR4 (1746) genotype CC,44%
same,Odds Ratio (T6 v P),HTR4 (1746) genotype CC,3.1
same,% Responders T6,HTR4 (1746) genotype CT,49%
same,Odds Ratio (T6 v P),HTR4 (1746) genotype CT,2.6
same,% Responders T6,HTR4 (1746) genotype TT,70%
same,Odds Ratio (T6 v P),HTR4 (1746) genotype TT,3.2
same,% Responders T6,HTR4 (3743) genotype AA,48%
same,Odds Ratio (T6 v P),HTR4 (3743) genotype AA,3.7
same,% Responders T6,HTR4 (3743) genotype AC,52%
same,Odds Ratio (T6 v P),HTR4 (3743) genotype AC,4.7
same,% Responders T6,HTR4 (3743) genotype CC,78%
same,Odds Ratio (T6 v P),HTR4 (3743) genotype CC,8.2
same,% Responders T6,HTR4 (3747) genotype AA,41%
same,Odds Ratio (T6 v P),HTR4 (3747) genotype AA,2.7
same,% Responders T6,HTR4 (3747) genotype AT,54%
same,Odds Ratio (T6 v P),HTR4 (3747) genotype AT,3.1
same,% Responders T6,HTR4 (3747) genotype TT,65%
same,Odds Ratio (T6 v P),HTR4 (3747) genotype TT,3.0
same,% Responders T6,HTR4 (3753) genotype CC,45%

# From patent US20090118350A1, “Biomarkers for Identifying Efficacy of Tegaserod in Patients with Chronic Constipation” (priority 2005, published 2009)
